How the values were obtained:
Assay in all cases: normalised viability (% of control), CellTiter-Blue; higher = more viable cells (about 100 = DMSO control)
[1] = system: MDA-MB-436; conditions: incubation time: 72 h
How it was run: (§1)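 384-well plates were pre-loaded with compound in 5 µl medium before 20 µl of breast cancer cell suspension was seeded. Following 72 h incubation, 2.5 µl CellTiter-Blue reagent was added for 2 h at 37 °C. Fluorescence was read at 560/590 nm and plates were normalised to vehicle (100) and a positive kill control (0), checked by Z'-factor. Normalised viability is reported at a single listed concentration of the series.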

[2] = system: CAL-148; conditions: incubation time: 72 h
How it was run: as §1

[3] = system: MDA-MB-468; conditions: incubation time: 72 h
How it was run: as §1

[4] = system: CAL-85-1; conditions: incubation time: 72 h
How it was run: as §1

[5] = system: HDQ-P1; conditions: incubation time: 72 h
How it was run: as §1

[6] = system: CAL-51; conditions: incubation time: 72 h
How it was run: as §1

[7] = system: MDA-MB-231; conditions: incubation time: 72 h
How it was run: as §1

[8] = system: CAL-120; conditions: incubation time: 72 h
How it was run: as §1

[9] = system: DU-4475; conditions: incubation time: 72 h
How it was run: as §1

[10] = system: HCC1143; conditions: incubation time: 72 h
How it was run: as §1

[11] = system: HCC1599; conditions: incubation time: 72 h
How it was run: as §1

[12] = system: HCC1937; conditions: incubation time: 72 h
How it was run: as §1

[13] = system: BT-549; conditions: incubation time: 72 h
How it was run: as §1

[14] = system: MDA-MB-453; conditions: incubation time: 72 h
How it was run: as §1

[15] = system: BT-474; conditions: incubation time: 72 h
How it was run: as §1

[16] = system: Hs578T; conditions: incubation time: 72 h
How it was run: as §1

[17] = system: MFM-223; conditions: incubation time: 72 h
How it was run: as §1

[18] = system: SK-BR-3; conditions: incubation time: 72 h
How it was run: as §1

[19] = system: MDA-MB-436; conditions: 100 nM; incubation time: 72 h
Description: (§2)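 DSRT, CellTiter-Blue viability, 72 h incubation. Signal is normalised to DMSO and benzethonium chloride controls. Value is the normalised response at dose 3.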

[20] = system: CAL-148; conditions: 10 nM; incubation time: 72 h
Description: as §2

[21] = system: MDA-MB-468; conditions: 100 nM; incubation time: 72 h
Description: as §2

[22] = system: CAL-85-1; conditions: 10 nM; incubation time: 72 h
Description: as §2

[23] = system: HDQ-P1; conditions: 10 nM; incubation time: 72 h
Description: as §2

[24] = system: CAL-51; conditions: 10 nM; incubation time: 72 h
Description: as §2

[25] = system: MDA-MB-231; conditions: 100 nM; incubation time: 72 h
Description: as §2

[26] = system: CAL-120; conditions: 100 nM; incubation time: 72 h
Description: as §2

[27] = system: DU-4475; conditions: 10 nM; incubation time: 72 h
Description: as §2

[28] = system: HCC1143; conditions: 100 nM; incubation time: 72 h
Description: as §2

[29] = system: HCC1599; conditions: 100 nM; incubation time: 72 h
Description: as §2

[30] = system: HCC1937; conditions: 100 nM; incubation time: 72 h
Description: as §2

[31] = system: BT-549; conditions: 100 nM; incubation time: 72 h
Description: as §2

[32] = system: MDA-MB-453; conditions: 10 nM; incubation time: 72 h
Description: as §2

[33] = system: BT-474; conditions: 100 nM; incubation time: 72 h
Description: as §2

[34] = system: Hs578T; conditions: 100 nM; incubation time: 72 h
Description: as §2

[35] = system: MFM-223; conditions: 100 nM; incubation time: 72 h
Description: as §2

[36] = system: SK-BR-3; conditions: 100 nM; incubation time: 72 h
Description: as §2

COC(=O)C[C@](O)(CCCC(C)(C)O)C(=O)O[C@@H]1C(OC)=C[C@]23CCCN2CCc2cc4c(cc2[C@H]13)OCO4 [Omacetaxine mepesuccinate]
normalised viability [%]
Conditions	3 nM	10 nM	30 nM	100 nM	1000 nM	10000 nM
[1]	–	88.5	–	–	19	11.7
[2]	96.3	–	26	14.8	–	–
[3]	–	90.2	–	–	4.25	3.02
[4]	86.8	–	25.3	9.04	–	–
[5]	92.5	–	24.6	14.9	–	–
[6]	101	–	31.6	11.8	–	–
[7]	–	87.9	–	–	6.79	3.89
[8]	–	69.2	–	–	7.92	5.91
[9]	81	–	2.2	4.43	–	–
[10]	–	87.2	–	–	14.2	11
[11]	–	68.9	–	–	17	12.9
[12]	–	55.9	–	–	13.9	14.3
[13]	–	87.2	–	–	7.63	4.5
[14]	109	–	44.5	21.4	–	–
[15]	–	118	–	–	23	13.3
[16]	–	111	–	–	1.46	1.1
[17]	–	88.3	–	–	8.87	4.39
[18]	–	89.4	–	–	6.71	3.15

Conditions	normalised viability [%]
[19]	21.4
[20]	67.6
[21]	17.7
[22]	79.7
[23]	73
[24]	92.8
[25]	22.1
[26]	15.1
[27]	25.1
[28]	37.7
[29]	29.4
[30]	14.9
[31]	19.2
[32]	90.2
[33]	54.8
[34]	6.8
[35]	31
[36]	18.3

From the supplement of paper PMC4862054
